Data on two molecules can be found in US20180207113A1, “VIVO INTRACELLULAR REPROGRAMMING COMPOSITION AND METHOD OF MAKING AND USING SAME” (priority 2017, published 2018).

For experiment [1], the system named is C. elegans. In words: Activity and fitness during aging in C. elegans (mobility, pharyngeal pumping). The class given is in vivo.
The test system of the next experiment is mitophagy. In words: Induction of mitophagy in vitro and in vivo. To be noted: in vitro and in vivo following oral consumption.
In experiment [2] the test system is C. elegans. The experiment can be described thus: C. elegans lifespan. The class given is in vivo. An excerpt: Urolithins extend lifespan and improve fitness in C. elegans.
The test system of experiment [3] is C. elegans. The experiment can be described thus: Mitochondrial function with age in C. elegans. The class given is in vivo.

As to `O=c1oc2cc(O)ccc2c2ccc(O)cc12` [UA, urolithin A], the “normal activity during aging, including mobility and pharyngeal pumping” value with C. elegans [1] was “prolonged normal activity during aging”. Besides, in the experiment with mitophagy, the induction of mitophagy result was “induces mitophagy both in vitro and in vivo”. Besides, the lifespan entry in the experiment on C. elegans [2] was “extended lifespan”. The “mortality observed at advanced ages” value in the experiment with C. elegans [2] (at 50 μM) is on record as “significantly delayed the mortality”. In the experiment on C. elegans [2] (concentrations increased from 10 to 50 μM), the “dose-response effect on lifespan” value is given as “clear dose-response effect”. Further, the “accumulation of dysfunctional mitochondria with age” value with C. elegans [3] is recorded as “prevented the accumulation of dysfunctional mitochondria with age”. The mitochondrial respiratory capacity entry in the experiment on C. elegans [3] (during aging) is “maintaining mitochondrial respiratory capacity”.

As to `O=c1oc2c(O)c(O)cc3c(=O)oc4c(O)c(O)cc1c4c23` [EA], in the experiment on C. elegans [2] (at the same concentration (not given)), the effect on lifespan result is on record as “no effect on lifespan”.
